Assay results reported in a melting point compilation (Tetko et al.; mined from patent text by program, amines drawn as free bases though some values may be those of a salt).

Row | SMILES | melting point [°C]
1 | CCOC1C=CC(Cl)=CC1(C)S(N)(=O)=O (centres undefined) | 153 to 155
2 | O=C1Nc2cccc(-c3ccc(Cl)cc3Cl)c2/C1=C/c1ccc[nH]1 | 185 to 187
3 | Cc1ccccc1Nc1nc(N(C)c2ccccc2)c2cccc(O)c2n1 | 174 to 175
4 | CC(C)c1ccc(-n2nc(C(C)(C)C)cc2NC(=O)c2cncc3cc(Oc4cc(N)ncn4)ccc23)cc1 | 131 to 133
5 | Cc1ccccc1-c1cc(Cl)cc2c1NC(CN)CO2 (centres undefined) | 86
6 | Cc1nc2ccccc2n1-c1ccc(I)cc1 | 136 to 137
7 | Cc1ccccc1N1CNC(=O)C12CCN(C(=O)c1cc(C(F)(F)F)cc(C(F)(F)F)c1)CC2 | 164 to 168
8 | Cc1[nH]c(=O)n(-c2cc(C(=O)OC(C)C)c(Cl)cc2F)c(=O)c1I | 211 to 213
9 | CN1CCC[C@H]1c1cnc(Cl)cc1P(C(C)(C)C)C(C)(C)C | 125 to 127
10 | CC1=Nc2cc3c(cc2C1(C)C)N=C(C)C3(C)C | 190 to 195
11 | C[C@@H]1CN(CCNC(=S)N(C)C)CC[C@@H]1Nc1nc2ccccc2n1Cc1ccc(F)cc1 (relative stereo) | 127
12 | CC(C)(C)NC(=O)c1nn(-c2cc(F)c(F)cc2F)c2c1C1CCC2C1 (centres undefined) | 127 to 130
13 | Cc1[nH]c2c(ccc3sc4ccccc4c32)c1C=O | 192 to 194
14 | CC(C)(C)c1cc(NC(=O)Nc2ccc(-c3c(C(N)=O)[nH]c4ccccc34)cc2)no1 | 176 to 178
15 | CNCC1Cc2cc(F)cc(-c3c(Cl)cccc3Cl)c2O1 (centres undefined) | 140 to 142
16 | CCCN(CCC)Cc1csc(-c2ncn3c2CN(C)C(=O)c2cc(F)ccc2-3)n1 | 134 to 136
17 | CCSc1ccc(Cl)nc1C#N | 79 to 81
18 | CCc1nc(Cl)cc(NC)n1 | 80 to 81
19 | COc1cc(Cn2c(-c3ccc(OCc4ccccc4)cc3)c(C)c3cc(OCc4ccccc4)ccc32)ccc1OCCBr | 150 to 152
20 | O=C1CCN(Cc2ccccc2)C(=O)C1=C1SC=CS1 | 122 to 124
21 | COCCn1nc2c(N)nc3c(c2c1CC(C)(C)O)CCCC3 | 163 to 165
22 | CCCCC1=C(C#N)N(O)CS1 | 118 to 120
23 | O=C1Cc2c(Cl)cccc2Sc2ccccc21 | 122 to 125

Row | SMILES | melting point [°C]
24 | Cc1cc(=O)c(O)c(C)o1 | 161 to 163
25 | O=C1c2ccccc2C(=O)c2c1ccc1[nH]c(=O)c(=O)[nH]c21 | 245 to 246
26 | Cc1cccc(-c2n[nH]cc2-c2ccc(F)c(-c3cn4c(n3)S(=O)(=O)CC4)c2)n1 | 134 to 138
27 | O=C(O)C1(c2cn3nc(NCCCN4CCC(OC(c5ccccc5)c5ccccc5)CC4)ccc3n2)CC1 | 115 to 117
28 | CCCCCCCCCCC1(CCCCCCCCCC)c2cc(Br)ccc2-c2ccc(N(c3ccccc3)c3ccccc3)cc21 | 66.8 to 69.2
29 | Cc1ccc(S(=O)(=O)OC(c2cccc(C(OS(=O)(=O)c3ccc(C)cc3)(C(F)(F)F)C(F)(F)F)c2)(C(F)(F)F)C(F)(F)F)cc1 | 131
30 | OC(c1ccc(Cl)cc1)c1cc2ccncc2[nH]1 (centres undefined) | 176 to 180
31 | CCc1cn(C2CC(O)C(CCCNC(=O)Cc3c(Cl)cccc3Cl)O2)c(=O)[nH]c1=O (centres undefined) | 227 to 229
32 | NC(=O)c1ccc(CCC[N@]2C[C@@H]2c2ccccc2)s1 | 117 to 119
33 | COc1cc(N)c(Cl)cc1C(=O)NCC1CCN(CCCCCN)CC1 | 60 to 63
34 | Oc1ccc(CCN2CCC(Cc3nc4c(O)ncnc4n3Cc3ccc(F)cc3)CC2)cc1 | 216
35 | C[C@@H]1C(=O)C[C@H]2C[C@@H]1OO[C@@]2(C)/C=C\c1ccc(Cl)cc1Cl | 137
36 | CCc1ccc(Nc2nc3cc([N+](=O)[O-])ccc3o2)cc1 | 172 to 173
37 | O=[N+]([O-])c1ccc(Cl)nc1-c1ccncc1 | 137 to 138
38 | Cc1ccc(S(=O)(=O)OCC2Cc3cccc(-c4ccc(F)c(Cl)c4)c3O2)cc1 (centres undefined) | 104 to 108
39 | CCOc1nnc2n1C=Cc1ccccc1C2 | 143 to 144
40 | CC(C)(C)OC(=O)N1CCC(C2=C(C#N)C(c3cccc4nonc34)c3c[nH]nc3N2)CC1 (centres undefined) | 226
41 | COC(Cc1nsc(N)n1)OC | 62 to 66.5
42 | O=C1CCC(C2CCCCC2)C(=O)C1 (centres undefined) | 137 to 140
43 | Nc1ccc(S(=O)c2ccc(-c3ccc(Br)cc3)cc2)cc1[N+](=O)[O-] (centres undefined) | 218 to 220
44 | O=C1CC(c2cccc(-n3ccnc3)c2)=Nc2cc(Cl)c(-c3ccc(F)cc3)cc2N1 | 209 to 211
45 | COc1cc(C)nc(NC(=O)NS(=O)(=O)c2ccsc2C2=CCCCC2)n1 | 190 to 192

Continued, values first:

Row | melting point [°C] | SMILES
46 | 116 to 117 | COC(=O)/C=C/c1ccc(OCc2nc(-c3ccccc3)oc2C)nc1
47 | 87 to 89 | CCCCN(C)C(=O)CS(=O)CCCCCOc1ccc(C2=C(c3ccccc3)CCCc3cc(O)ccc32)cc1 (centres undefined)
48 | 98 | COc1ccc2cc([C@H](C)C(=O)OCC3(CO[N+](=O)[O-])COCOC3)ccc2c1
49 | 196 to 198 | CC(C)(O)Cc1c2c(nn1CCO)c(N)nc1ccccc12
50 | 150 | COc1ccc(-c2ccc(S(=O)(=O)NCc3ccccn3)nc2)cc1
51 | 154 to 158 | Nc1cc(Cl)cc(Cl)c1C(=O)NCc1ccccc1F
52 | 110 to 111 | COC(=O)C1COc2c(C(=O)c3ccccc3)cc(C)cc21 (centres undefined)
53 | 143 to 144 | O=C(Nc1ccccc1)C(CBr)CBr
54 | 160 to 162 | COc1ccc(C[C@@H](NC(=O)OCc2ccccc2)[C@H](O)C(=O)O)cc1
55 | 45 to 47 | COCCCCCCCCCCCC(=O)O
56 | 228 | O=C(O)C(Cl)=C(Cl)C(=O)c1ccccc1
57 | 187 to 189 | CCOc1ccc(-c2ccc3c(c2)C=C(C(=O)Nc2ccc(CCl)cc2)CCO3)cc1
58 | 69 to 74 | Cc1c(C(=O)OC(C)C)ncc2c1c1c(OCc3ccccc3)cccc1n2CC(=O)N(C)CCc1ccccc1
59 | 176 to 177 | CN(C)CCCOc1ccc(-c2n[nH]c3ncccc23)cc1
60 | 145 to 152 | CC12CCC(=O)C=C1CCC1C2C2CC3(C(O)O2)C(C(=O)COC(=O)CC(CC(=O)O)c2ccc(O)cc2)CCC13 (centres undefined)
61 | 183 to 184 | Cc1nc(C)c(Cl)c(CNCc2ccc(Oc3ccc4ncc([N+](=O)[O-])n4n3)cn2)n1
62 | 175 to 176 | O=C(O)COc1cccc2c1CCc1sc(S(=O)(=O)CCC(c3ccccc3)c3ccccc3)nc1-2
63 | 158 to 160 | CCNc1nc(N2CCN(Cc3ccccc3)CC2)ncc1C(=O)O
64 | 64 to 72 | COc1c2c(c(OC)c(OC)c1OC)CC(CCCCOc1ccc(C(=O)N3CCOCC3)cc1)C2
65 | 175 to 176 | Cc1cc(Cl)ccc1OCC(=O)N1Cc2ccc(C(=O)c3ccc(Cl)cc3)n2Cc2ccccc21
66 | 192 to 194 | O=C(NC(=O)c1c(F)cccc1F)Nc1cccc(S(=O)(=O)C(F)(F)C(F)Cl)c1 (centres undefined)
67 | 71 to 72 | COC1C=C(c2ccc(C#N)cc2)C(OC)O1 (centres undefined)
68 | 96 to 96.5 | COc1ccc(C(O)CCCC(=O)Nc2ccccc2)cc1 (centres undefined)
69 | 149 to 153 | CC(c1cc2cc(F)ccc2s1)N(O)C(N)=O (centres undefined)
70 | 292 to 294 | Nc1nc(Oc2ccc(O)cc2)nc2nc(-c3ccco3)nn12
71 | 58.3 | CCOc1ccccc1C=[N+]([O-])C(C)(C)C
72 | 135 to 140 | NC(=O)CCN1CCC(C2c3ccccc3C=Cc3ccccc32)CC1

Row | melting point [°C] | SMILES
73 | 196 to 197 | CCOC(=O)c1ccc(N2CCN(Cc3c[nH]c4ncccc34)CC2)cc1
74 | 130 to 132 | CCCc1c(OCCCCCCc2cccc(O)c2O)ccc(C(=O)O)c1OC(C)=O
75 | 190 to 192 | CCOC(=O)c1cnc2c(c(C)nc3ccnn32)c1O
76 | 98 to 100 | CC(C)n1nc(C(Br)C(=O)c2ccccc2)ccc1=O (centres undefined)
77 | 180 | CCN(CC)CC(C)N1c2ccccc2Sc2ccc(C(N)=S)cc21 (centres undefined)
78 | 123 to 124 | CCCCCCCCOc1ccc(C(N)=O)c(O)c1
79 | 185 to 187 | Cc1nc(N2CCN(CC(C)C)C2=O)sc1C(=O)NCc1ccncc1
80 | 140 | Cc1ccccc1N(CC(=O)OC(C)(C)C)C(=O)CN1C(=O)c2ccccc2C1=O
81 | 183 to 184 | CCCc1c(O)c(O)c(C(=O)O)c2cc(Cc3ccccc3)c(C)cc12
82 | 70 to 72 | CCOC(=O)[C@H](Cc1ccc(-c2c(OC)cc(CO)cc2OC)cc1)NC(=O)c1c(F)cccc1F
83 | 196 to 200 | CCCCSc1ccc2[nH]c(=O)oc(=O)c2c1
84 | 138 to 140 | C=CCn1nc(C(=O)NC)cc1OCCCN1CCN(c2cccc3sccc23)CC1
85 | 92 to 94 | NCCC(O)c1ccccc1 (centres undefined)
86 | 173 to 195 | CC=C(c1ccccc1)c1c(C)nn(C)c1NC(=O)Nc1ccccc1
87 | 129 to 130 | COCCOc1ccc(C(=O)C(=O)O)cc1
88 | 135 to 136 | COC(=O)c1cc(Cl)ccc1-n1c(CCl)nc2ccccc2c1=O
89 | 148 to 150 | CCOC(OCC)N1C(=O)C(c2ncnc3cc(OCCOC)c(OC)cc23)c2ccccc21 (centres undefined)
90 | 158 to 160 | O=C(O)CSC(c1ccccc1)(c1ccccc1)c1ccccc1
91 | 203 to 204 | CC1(C)CC(=C(c2ccc(O)cc2)c2ccc(OCCCC(=O)O)cc2)CC(C)(C)C1
92 | 184 to 185 | CC1=C(C(=O)OC(C)C)C(c2cccc([N+](=O)[O-])c2)N(C(=O)NCc2ccccc2)C(=O)N1 (centres undefined)
93 | 127 to 130 | COc1cc2cc(COC(C)=O)c(C(=O)OC3OC(CO)C(O)C(O)C3O)c(-c3ccc4c(c3)OCO4)c2cc1OC (centres undefined)
94 | 69 to 71 | CCOC(=O)CON(C)C(=S)Nc1ccc2c(c1)CCC2
95 | 201 to 202 | O=C(Nc1ccc(-c2ccccc2)cc1)c1ccc2n1Cc1ccccc1N(C(=O)COc1ccc(Cl)cc1)C2
96 | 250 | NC(=O)c1cn(-c2ccccn2)nc1-c1ccc([N+](=O)[O-])o1
97 | 78 to 80 | CCCN(CCC)C(Cc1cccc2[nH]cnc12)C(=O)OCC (centres undefined)
98 | 178 | Cc1cccc(C(=NO)c2ccc(Cl)cc2)c1O
99 | 186 to 188 | CC12CCC(C1)C1(C)Oc3ccc(C(=O)COc4ccc(C(=O)O)c(O)c4)cc3C21C (centres undefined)
